# Test results as given in article PMC12119673, “Apoptotic cell death induced by copper (II), manganese (II) and silver (I) complexes containing bridging dicarboxylate and 1,10-phenanthroline ligands: one of the multi-modes of anticancer activity?” (Biometals, 2025).
# Columns and labels:
# Format in all cases: cell-based, human
# MCF-7 cells = assay: Detection of reactive oxygen species with H2DCFDA; details: MCF-7, 0.78 μM to 50 μM, over a 6-h period, fold-change compared to the negative control
# Procedure: The production of reactive oxygen species (ROS) was detected in MCF-7 and MCF12A cells using the cell-permeant dye 2',7'- dichlorodihydrofluorescein diacetate (H2DCFDA) (Thermo Fisher Scientific, Ireland) (Cat# D399). Cells were seeded at a density of 1 × 10^4 in 96 well plates and incubated for 24 h. Post-incubation, the media was removed, and cells were washed with PBS. A 10 μM DCFH-DA working solution was prepared using cell culture media, and the cells were incubated with 100 μl of the solution in the dark for 30 min. […] Fluorescent measurements were recorded at 15 min, 30 min, 1 h, and subsequently every hour up to 6 h using a Varioskan Lux™ multimode microplate reader (Thermo Fisher Scientific, Ireland) at an excitation wavelength of 495 nm and emission of 527 nm. The assay was repeated three independent times, using three replicates per plate.
# The cells were treated with a concentration range from 0.78 μM to 50 μM, and the response was measured over a 6-h period. This facilitated the evaluation of whether there was a time and/or concentration dependent response from the cells. Hydrogen peroxide (H2O2) was used as a positive control. ROS production is presented as fold-change compared to the negative control.
# [1] = test system: apoptotic genes in MCF-12A cells; assay: Apoptosis-related gene expression, qRT-PCR; details: IC25 concentration, 24 h, relative to negative control
# Procedure: (§1) A broad scope of molecular targets involved in the apoptotic pathway were selected for analysis using qRT-PCR including initiators, mediators and inhibitors. These gene targets along with their cellular location and associated primer set are outlined in Table 2. Primer sets for each gene were designed using NCBI nucleotide sequences and the Primer3 application (Table 3). Once designed, the primers were synthesised by Sigma Aldrich, Ireland.
# (§2) MCF-7 and MCF-12A cells were seeded at a density of 1 × 10^5 in T25 flasks and incubated for 24 h allowing for attachment. Following incubation, the seeding media was removed, and the cells were washed with PBS. […] Post-exposure, RNA was isolated from the cells. Tri-reagent^Ⓡ (Sigma, Ireland) (Cat# T9424) was added to the cells followed by centrifugation at 300 g for 5 min. The RNA was precipitated using chloroform, followed by centrifugation and washing of the pellet using 75% ethanol. The RNA was resuspended in 30 μl of nuclease-free water. The RNA was either used immediately for qRT-PCR or stored at −80 ℃. The RNA from each sample was quantified using the NanoDrop™ 2000 Spectrophotometer (Thermo Fisher Scientific, Ireland). The A260/A230 ratio was measured to ensure the purity of each sample. Prior to cDNA synthesis, all samples were adjusted to a concentration of 100 ng. The RNA was then reverse transcribed into cDNA using the Quanta Biosciences Kit (Quanta Biosciences, USA) (Cat# 95047). Using the SimpliAmp Thermal Cycler (Applied Biosystems; Thermo Fisher Scientific, Ireland), the following settings were applied: 5 min at 22 ℃, 30 min at 42 ℃, 5 min at 85 ℃; samples were then maintained in an indefinite hold at 4 ℃ prior to being used for quantitative real-time PCR. The cDNA templates were amplified and analysed using SYBR™ Green (Fisher Scientific, UK) (Cat#10187094). Using the 7500 fast Real-Time PCR System (Applied Biosystems, USA), the following thermal cycling setting were applied for amplification: Pre-Incubation (1 cycle) 95 ℃, 5 Minutes, 4.4 ℃ ramp; Amplification (45 cycles) 95 °C 10 s ramp 4.4 °C, 60 °C 10 s ramp 2.2 °C, 72 °C 10 s ramp 4.4 °C; Melting Curve (1 cycle) 95 °C 5 s ramp 4.4 °C, 65 °C 1 min ramp 2.2 °C, 97 °C continuous ramp 0.11 °C acquisition 10 per °C; Cooling (1 cycle) 40 °C 10 s ramp 1.5 °C. Two reference genes, actin and tubulin, were employed to determine the expression of the target genes. No template controls were included to confirm the absence of template contamination and auto-fluorescence. Each PCR plate contained three technical replicates per sample and gene target, with each experiment repeated three independent times using three individual biological replicates.
# (§3) qRT-PCR data was analysed by first using the Vandesompele method to calculate the geometric mean of Ct values for the reference genes, actin and tubulin. These values were used for normalisation of the target gene expression values which were then calculated using the Livak and Schmittgen formula: 2^−ΔCt1(test)−ΔCt2(control) (Livak and Schmittgen [2001]; Vandesompele et al. [2002]).
# (§4) The expression profiles (Fig. 4) display the log(2) transformed mean expression value for each gene target relative to the negative control. Expression values for each target were determined relative to the geometric means of reference genes. […] Each graph contains a threshold line, set at the value of one, this represents baseline expression levels of genes.
# [2] = test system: apoptotic genes in MCF-7 cells; assay: Apoptosis-related gene expression, qRT-PCR; details: MCF-7, IC25 concentration, 24 h, relative to negative control
# Procedure: as §1, §2, §3, §4
# MCF-12A cells = assay: Apoptosis induction, Annexin V / propidium iodide flow cytometry; details: IC25 concentration, 24 h
# Procedure: MCF-7 and MCF-12A cells were seeded at a density of 1 × 10^5 in T25 flasks (Sarstedt, Germany) and incubated for 24 h at 37 °C with 5% CO2 allowing for attachment. Post -incubation, the media was removed, cells were washed with sterile PBS and then treated using IC25 concentrations established from the in vitro cytotoxicity screen. […] After the exposure period, the cells were enzymatically detached using trypsin, collected and centrifuged at 1200RPM for 10 min. The cells were then washed with PBS, re-centrifuged and resuspended in 1 ml of annexin binding buffer. Prior to staining, the concentration of each sample was adjusted to 1 × 10^6 cells/ml. The cells were stained with 1 μl of propidium iodide (PI) (Sigma, Ireland) (Cat #P4864) and 2 μl of Annexin V (Thermo Fisher Scientific, Ireland) (Cat #A13199). The cells were incubated at room temperature for 15 min prior to analysis. The staining process was completed in the dark to eliminate interference with photo-sensitive reagents. Immediately prior to analysis by flow cytometry, 400 μl of annexin binding buffer was added to each sample. Samples were analysed using a (CytoFLEX) (Beckman Coulter, USA). The AV/PI assay was completed three independent times.
# Flow cytometry data analysis was performed with the CytExpert package (Ver. 2.4) (Beckman Coulter, USA) and Microsoft^Ⓡ Excel (USA). The mean MFI and percentage cells were calculated using these packages, followed by one-way ANOVA analysis with post hoc Bonferroni correction using GraphPad Prism (Ver. 9.4) (GraphPad, USA).
# The induction of apoptosis was analysed in MCF-7 and MCF-12A cells using the Annexin V and Propidium Iodide assay with flow cytometry. […] The assay allows for the differentiation of viable, apoptotic and necrotic cells based on the selective staining of Annexin V and PI. Annexin V binds to phosphatidylserines externalised to the outer leaflet of the plasma membrane during apoptosis; and PI is a membrane impermeable dye that binds to DNA of necrotic cells with compromised plasma membranes.
Molecule,ROS production (MCF-7 cells),"Caspase gene expression (caspase-9, -8, -3) [1]","Pro-apoptotic gene expression (BID, BIM, BAD, BAX) [1]","Caspase gene expression (caspase-9, -8, -3) [2]","Pro-apoptotic gene expression (BID, BIM, BAD, BAX) [2]",Apoptotic population (% cells) (MCF-12A cells),Necrotic population (% cells) (MCF-12A cells)
"O=C([O-])CCCCCCC(=O)[O-].[Cu+2].[Cu+2].[O-][Cl+3]([O-])([O-])[O-].[O-][Cl+3]([O-])([O-])[O-].c1cnc2c(c1)ccc1cccnc12.c1cnc2c(c1)ccc1cccnc12.c1cnc2c(c1)ccc1cccnc12.c1cnc2c(c1)ccc1cccnc12 [Complex 1, [Cu2(oda)(phen)4](ClO4)2]",moderate production of ROS,expressed caspase 8,upregulated expression of the gene encoding BH3-only protein BID,expressing initiator caspase 9,upregulated expression of the gene encoding BH3-only protein BID,–,–
"O=C([O-])CCCCCCC(=O)[O-].[Cu+2].c1cnc2c(c1)ccc1cccnc12.c1cnc2c(c1)ccc1cccnc12 [Complex 2, [Cu(oda)(phen)2]]",moderate production of ROS,expressed caspase 8,upregulated expression of the gene encoding BH3-only protein BID,expressing initiator caspase 9,upregulated expression of the gene encoding BH3-only protein BID,–,–
"O=C([O-])CCCCCCC(=O)[O-].[Ag+].[Ag+].c1cnc2c(c1)ccc1cccnc12.c1cnc2c(c1)ccc1cccnc12.c1cnc2c(c1)ccc1cccnc12 [Complex 4, [Ag2(oda)(phen)3]]",lowest production,expression of caspase-9 and caspase-3,significantly elevated BIM and BAD expression,expression of caspase-9 and caspase-3,–,significant decrease in apoptotic cells,virtually no necrotic population
"O=C([O-])CCCCCCCCCC(=O)[O-].[Ag+].[Ag+].c1cnc2c(c1)ccc1cccnc12.c1cnc2c(c1)ccc1cccnc12.c1cnc2c(c1)ccc1cccnc12 [Complex 5, [Ag2(udda)(phen)3]]",lowest production,expression of caspase-9 and caspase-3,significantly elevated BIM and BAD expression,expression of caspase-9 and caspase-3,–,same level of apoptosis,no necrotic population was observed
"c1cnc2c(c1)ccc1cccnc12 [Phen, 1,10-Phenanthroline]",–,all caspases seen to be activated,pro-apoptotic BIM and BAD were upregulated,all caspases seen to be activated,pro-apoptotic BIM and BAD were upregulated,–,–
{[Mn2(oda)3(phen)4]^2−[Mn2(oda)(phen)4 (H2O)2]^2+} [Complex 7],"potent inducer of ROS, eliciting the highest production in MCF-7 cells","Initiator caspase 9 was expressed by MCF-12A cells, but executioner caspase-3 was not found to be expressed",only shown to express BIM,No caspase activity was observed,expression of both BID and BIM,significantly diminished apoptotic population,no necrosis observed
